Measurements: ChEMBL document CHEMBL4000214, “Lycopene pretreatment improves hepatotoxicity induced by acetaminophen in C57BL/6 mice” (2017)
Activity calls are given as the source filed them. The calls are words filed in the database; no cut-off is given here.

How the values were obtained:
[1] = test system: Mus musculus; experiment: (§1) Hepatoprotective activity against APAP overdose-induced liver damage in C57BL/6 mouse assessed as serum IL-6 mRNA level at 10 mg/kg, po pretreated via gavage for 14 consecutive days followed by APAP treatment 1 hr post last dose on day 14 measured 12 hrs post APAP treatment by RT-PCR method (reference value: 0.32 +/- 0.2); type: functional
[2] = test system: Mus musculus; experiment: (§2) Hepatoprotective activity against APAP overdose-induced liver injury in C57BL/6 mouse assessed as HDL level in serum at 100 mg/kg, po pretreated via gavage for 14 consecutive days followed by APAP treatment 1 hr post last dose on day 14 measured 12 hrs post APAP treatment by spectrophotometric method (reference value: 10.8 +/- 0.6 mg/dl); type: functional
[3] = test system: Mus musculus; experiment: as §2, with “total cholesterol” for “HDL”, “42.2” for “10.8”, “3.5” for “0.6”; type: functional
[4] = test system: Mus musculus; experiment: Hepatoprotective activity against APAP overdose-induced oxidative damage in C57BL/6 mouse assessed as decrease in GSSG level in liver at 100 mg/kg, po pretreated via gavage for 14 consecutive days followed by APAP treatment 1 hr post last dose on day 14 measured 12 hrs post APAP treatment; type: functional, organism-based
[5] = test system: Mus musculus; experiment: Hepatoprotective activity against APAP overdose-induced liver damage in C57BL/6 mouse assessed as decrease in APAP-induced MMP2 activity in liver at 10 to 100 mg/kg, po pretreated via gavage for 14 consecutive days followed by APAP treatment 1 hr post last dose on day 14 measured 12 hrs post APAP treatment by coomassie brilliant blue staining based gelatin zymography assay; type: functional, organism-based
[6] = test system: Mus musculus; experiment: (§3) Hepatoprotective activity against APAP overdose-induced liver damage in C57BL/6 mouse assessed as decrease in liver necrotic area at 100 mg/kg, po pretreated via gavage for 14 consecutive days followed by APAP treatment 1 hr post last dose on day 14 measured 12 hrs post APAP treatment by hematoxylin and eosin staining based assay; type: functional, organism-based
[7] = test system: Mus musculus; experiment: Hepatoprotective activity against APAP overdose-induced oxidative damage in C57BL/6 mouse assessed as decrease in GSSG level in liver at 10 mg/kg, po pretreated via gavage for 14 consecutive days followed by APAP treatment 1 hr post last dose on day 14 measured 12 hrs post APAP treatment; type: functional, organism-based
[8] = test system: Mus musculus; experiment: as §1, with “IL-1beta” for “IL-6”, “100” for “10”, “1.67” for “0.32”, “0.4)” for “0.2)”; type: functional
[9] = test system: Mus musculus; experiment: as §2, with “serum ALT” for “HDL”, “level” for “level in serum”, “10” for “100”, “166” for “10.8”, “1.7 IU)” for “0.6 mg/dl)”; type: functional
[10] = test system: Mus musculus; experiment: as §1, with “IL-10” for “IL-6”, “100” for “10”, “0.45” for “0.32”; type: functional
[11] = test system: Mus musculus; experiment: as §2, with “serum ALT” for “HDL”, “level” for “level in serum”, “166” for “10.8”, “1.7 IU)” for “0.6 mg/dl)”; type: functional
[12] = test system: Mus musculus; experiment: as §2, with “serum AST” for “HDL”, “level” for “level in serum”, “10” for “100”, “143.8” for “10.8”, “2.5 IU)” for “0.6 mg/dl)”; type: functional
[13] = test system: Mus musculus; experiment: (§4) Hepatoprotective activity against APAP overdose-induced oxidative damage in C57BL/6 mouse assessed as inhibition of APAP-induced decrease in total GSH level in liver at 10 to 100 mg/kg, po pretreated via gavage for 14 consecutive days followed by APAP treatment 1 hr post last dose on day 14 measured 12 hrs post APAP treatment by DTNB reagent based assay; type: functional, organism-based
[14] = test system: Mus musculus; experiment: as §2, with “total cholesterol” for “HDL”, “10” for “100”, “42.2” for “10.8”, “3.5” for “0.6”; type: functional
[15] = test system: Mus musculus; experiment: as §1, with “100” for “10”; type: functional
[16] = test system: Mus musculus; experiment: as §2, with “serum AST” for “HDL”, “level” for “level in serum”, “143.8” for “10.8”, “2.5 IU)” for “0.6 mg/dl)”; type: functional
[17] = test system: Mus musculus; experiment: as §2, with “10” for “100”; type: functional
[18] = test system: Mus musculus; experiment: (§5) Hepatoprotective activity against APAP overdose-induced oxidative damage in C57BL/6 mouse assessed as restoration of APAP-induced loss in SOD activity in liver by measuring SOD ability to dismutase superoxide anion at 10 to 100 mg/kg, po pretreated via gavage for 14 consecutive days followed by APAP treatment 1 hr post last dose on day 14 measured 12 hrs post APAP treatment by spectrophotometric method; type: functional, organism-based
[19] = test system: Mus musculus; experiment: Hepatoprotective activity against APAP overdose-induced oxidative damage in po dosed C57BL/6 mouse assessed as decrease in carbonylated protein content in liver pretreated via gavage for 14 consecutive days followed by APAP treatment 1 hr post last dose on day 14 measured 12 hrs post APAP treatment by spectrophotometric method; type: functional, organism-based
[20] = test system: Mus musculus; experiment: as §2, with “atherogenic fraction” for “HDL level”, “28.8” for “10.8”, “2.6” for “0.6”; type: functional
[21] = test system: Mus musculus; experiment: as §2, with “atherogenic fraction” for “HDL level”, “10” for “100”, “28.8” for “10.8”, “2.6” for “0.6”; type: functional
[22] = test system: Mus musculus; experiment: as §5, with “catalase” for “SOD”, “decrease in hydrogen peroxide level” for “SOD ability to dismutase superoxide anion”; type: functional, organism-based
[23] = test system: Mus musculus; experiment: as §1, with “IL-1beta” for “IL-6”, “1.67” for “0.32”, “0.4)” for “0.2)”; type: functional
[24] = test system: Mus musculus; experiment: as §1, with “IL-10” for “IL-6”, “0.45” for “0.32”; type: functional
[25] = test system: Mus musculus; experiment: Hepatoprotective activity against APAP overdose-induced oxidative damage in C57BL/6 mouse assessed as decrease in lipid peroxidation in liver at 10 to 100 mg/kg, po pretreated via gavage for 14 consecutive days followed by APAP treatment 1 hr post last dose on day 14 measured 12 hrs post APAP treatment by TBARS assay; type: functional, organism-based
[26] = test system: Mus musculus; experiment: as §3, with “10” for “100”; type: functional, organism-based
[27] = test system: Mus musculus; experiment: as §4, with “increase” for “inhibition of APAP-induced decrease”, “in” for “in total”; type: functional, organism-based

## CC(C)=CCC/C(C)=C/C=C/C(C)=C/C=C/C(C)=C/C=C/C=C(C)/C=C/C=C(C)/C=C/C=C(\C)CCC=C(C)C [LYCOPENE]
[1]
  Activity: 0.37
[2]
  Activity: 17 mg/dL
[3]
  Activity: 58.2 mg/dL
[4]
  Activity: Active
[5]
  Activity: Active
[6]
  Activity: Active
[7]
  Activity: inactive
[8]
  Activity: 0.58
[9]
  Activity: 161.7 IU
[10]
  Activity: 0.3
[11]
  Activity: 164.1 IU
[12]
  Activity: 139.6 IU
[13]
  Activity: Active
[14]
  Activity: 41 mg/dL
[15]
  Activity: 0.4
[16]
  Activity: 139.8 IU
[17]
  Activity: 9 mg/dL
[18]
  Activity: inactive
[19]
  Activity: Dose-dependent effect
[20]
  Activity: 41.1 mg/dL
[21]
  Activity: 30 mg/dL
[22]
  Activity: Active
[23]
  Activity: 0.68
[24]
  Activity: 0.57
[25]
  Activity: Active
[26]
  Activity: inactive
[27]
  Activity: Active
